Assays:
p-AXL = biological target: T1, p-AXL (Homo sapiens, UniProt P30530); experiment: Axl phosphorylation inhibition ELISA in HEK293T cells transfected with NanoLuc-tagged AXL; assay type: cell-based; conditions: 1 h compound incubation, media (OptiMEM)
T1 construct: expressed in transfected cells; host or cells: HEK293T
T1 sequence (P30530 26-894): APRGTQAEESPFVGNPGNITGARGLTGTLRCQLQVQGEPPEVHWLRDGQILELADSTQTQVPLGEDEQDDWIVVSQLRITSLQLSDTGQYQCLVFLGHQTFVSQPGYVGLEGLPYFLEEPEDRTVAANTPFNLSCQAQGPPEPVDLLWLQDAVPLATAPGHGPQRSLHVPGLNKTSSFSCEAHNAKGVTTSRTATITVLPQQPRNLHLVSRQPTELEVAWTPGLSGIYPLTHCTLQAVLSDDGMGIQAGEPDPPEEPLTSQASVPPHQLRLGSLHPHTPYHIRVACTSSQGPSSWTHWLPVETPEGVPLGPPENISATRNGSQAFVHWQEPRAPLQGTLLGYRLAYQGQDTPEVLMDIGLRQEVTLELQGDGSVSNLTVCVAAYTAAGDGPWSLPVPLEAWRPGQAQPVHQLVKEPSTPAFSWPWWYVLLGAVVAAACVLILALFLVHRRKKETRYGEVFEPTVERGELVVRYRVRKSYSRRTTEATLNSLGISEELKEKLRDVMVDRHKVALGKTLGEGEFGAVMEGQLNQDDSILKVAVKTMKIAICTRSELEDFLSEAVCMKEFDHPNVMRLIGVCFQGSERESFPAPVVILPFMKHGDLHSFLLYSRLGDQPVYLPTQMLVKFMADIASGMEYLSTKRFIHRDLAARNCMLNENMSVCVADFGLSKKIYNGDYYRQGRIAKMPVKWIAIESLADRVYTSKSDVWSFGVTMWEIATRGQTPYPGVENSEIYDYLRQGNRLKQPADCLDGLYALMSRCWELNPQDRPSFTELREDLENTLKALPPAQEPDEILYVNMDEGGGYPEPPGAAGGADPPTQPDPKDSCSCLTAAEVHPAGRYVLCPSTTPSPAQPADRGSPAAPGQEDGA
Procedure: [formula] Measurement of Axl Phosphorylation Inhibition
The dose-response assays were performed in S-Bio PrimeSurface® 3D culture: Ultra-low Attachment Plates: 384 well, U bottom (#MS-9384UZ) containing 400 nL of 22 serial 2-fold compound dilutions using Bravo and Echo. ELISA assay was performed on Pierce™ streptavidin coated high capacity 384-well white plates (Thermofisher Cat #15505). The plates were coated overnight at 4° C. with 50 μl/well of biotinlyated phospho-tyrosine mouse mAb (Cell Signaling Technology, 9417s).
HEK293T cells were grown in DMEM containing 10% FBS, 1% Pen/Strep, 1% G-Max. A day before the assay, cells were transiently transfected with 6.8 μg of NanoLuc-tagged AXL plasmid DNA and 8 μg of carrier DNA using FuGENE® HD Transfection Reagent (Promega) according to manufacturer's instructions. On the day of the assay, transfected cells were harvested and resuspended in OptiMEM. 70,000 cells/well were added to the compounds containing assay plates. After a gentle mix and a short spin, the plates were incubated at 37° C. After 1 h, the cells were lysed followed by a brief centrifugation and 30 min of shaking at 300 rpm. Meanwhile, the antibody coated plates were brought to room temperature and then were washed ten times in PBS with 0.05% Tween 20 (ELISA-wash buffer). 50 μl/well of cell lysate was transferred to the ELISA plates and shaken for 2 hours. After washing again with the ELISA wash buffer, the samples were diluted with 25 μl of PBS. The captured NanoLuc tagged p-AXL was detected using Nano-Glo® Luciferase Assay System (Promega) and manufacturer's instruction. The luminescence signal was measured using Envision plate reader. IC50 values were determined by fitting the data to a standard 4-parameter logistic equation.

Axl = biological target: T2, Axl (Homo sapiens, UniProt P30530); experiment: Biochemical potency, HTRF KinEASE-TK kinase assay; design: purchased Invitrogen; conditions: 5 nM AXL, 700 μM ATP
T2 sequence (P30530 26-894): T1 sequence (P30530 26-894)
Procedure: Measurement of Biochemical Compound Potency of Axl Inhibitors
Purified recombinant human AXL, TYRO3 and MER proteins were purchased from Invitrogen™. 10 nM AXL, 2 nM TYRO3 or MER were incubated with varying concentrations of compounds in 50 mM HEPES, pH 7.4, 10 mM MgCl2, 0.01% BSA, 1 mM DTT and 2% DMSO in a total volume of 20 μl in a 384-well microplate (Corning™ #3640) at RT for 1 h. The AXL, TYRO3 and MER enzymatic reaction was initiated by transferring 10 μl of enzyme and compound mixture into 10 μl of 1.6 μM TK Substrate-biotin (HTRF® KinEASE-TK kit, Cisbio) and 1400 μM ATP pre-incubated in 50 mM HEPES, pH 7.4, 10 mM MgCl2, 0.01% BSA, 1 mM DTT in a 384-well microplate (Corning™ #3640) at RT, giving the final reaction conditions: 5 nM AXL, 1 nM TYRO3 or MER, 800 nM TK Substrate-biotin and 700 μM ATP in 50 mM HEPES, pH 7.4, 10 mM MgCl2, 0.01% BSA, 1 mM DTT and 1% DMSO with varying concentrations of compounds. Following 2 h incubation at RT, the AXL, TYRO3 and MER enzymatic reaction was stopped by transfer of 10 μl of reaction into 10 μl of detection mix (400 nM Streptavidin-XL665, 200-fold dilution TK Antibody-Cryptate and detection buffer, HTRF® KinEASE-TK kit, Cisbio) in a white 384-well microplate (Perkin Elmer, OptiPlate 384). After 1 h incubation at RT, the plate was put into a plate reader (Evision) to read at 665/620 nm (acceptor/donor) for HTRF. The value of the DMSO blank (MIN inhibition=100% activity) was used as a negative control. The positive control was established by adding 5 μl of enzyme and DMSO mixture into 10 μl of detection mix followed by addition of 5 μl of TK Substrate-biotin and ATP mixture (MAX inhibition=0% activity). To calculate the percent activity, Equation 1 was used. Ratio665/620 is the value at a given compound concentration: […]

SMILES | IC50 (p-AXL) | IC50 (Axl)
Cc1ccc(C(C)(C)O)nc1-c1ccc(-c2c[nH]c3ncc(-c4ccc5c(c4)CC[C@@H](N4C6COCC4C6)CC5)cc23)cc1 [Example 8, 2-[5-Methyl-6-(4-{5-[(7S)-7-{3-oxa-6-azabicyclo[3.1.1]heptan-6-yl}-6,7,8,9-tetrahydro-5H-benzo[7]annulen-2-yl]-1H-pyrrolo[2,3-b]pyridin-3-yl}phenyl)pyridin-2-yl]propan-2-ol] | 100 to 1000 nM | < 100 nM
COCCN1CCc2ccc(-c3cnc4[nH]nc(-c5ccc(-c6ncccc6C)cc5)c4c3)cc2CC1 [Example 15, 3-(2-Methoxyethyl)-7-{3-[4-(3-methylpyridin-2-yl)phenyl]-1H-pyrazolo[3,4-b]pyridin-5-yl}-2,3,4,5-tetrahydro-1H-3-benzazepine] | 100 to 1000 nM | < 100 nM
Cc1cccnc1-c1ccc(-c2n[nH]c3ncc(-c4ccc5c(c4)CCC(N4CCCC4)C5)cc23)cc1 (centres unmarked) [Example 19, 3-Methyl-2-(4-{5-[6-(pyrrolidin-1-yl)-5,6,7,8-tetrahydronaphthalen-2-yl]-1H-pyrazolo[3,4-b]pyridin-3-yl}phenyl)pyridine] | 100 to 1000 nM | < 100 nM
Cc1cccnc1-c1ccc(-c2n[nH]c3ncc(-c4ccc5c(c4)CCN(C4CCCC4)CC5)cc23)cc1 [Example 24, 3-Cyclopentyl-7-{3-[4-(3-methylpyridin-2-yl)phenyl]-1H-pyrazolo[3,4-b]pyridin-5-yl}-2,3,4,5-tetrahydro-1H-3-benzazepine] | 100 to 1000 nM | < 100 nM

Continued, values first:

IC50 (p-AXL) | IC50 (Axl) | SMILES
< 100 nM | < 100 nM | Cc1ccc[n+]([O-])c1-c1ccc(-c2c[nH]c3ncc(-c4ccc5c(c4)CC[C@@H](N4C6COCC4C6)CC5)cc23)cc1 [Example 16, 3-Methyl-2-(4-{5-[(7S)-7-{3-oxa-6-azabicyclo[3.1.1]heptan-6-yl}-6,7,8,9-tetrahydro-5H-benzo[7]annulen-2-yl]-1H-pyrrolo[2,3-b]pyridin-3-yl}phenyl)pyridin-1-ium-1-olate]
< 100 nM | < 100 nM | Cc1cccnc1-c1ccc(-c2c[nH]c3nnc(-c4ccc5c(c4)CC[C@@](C)(N4CCC[C@H]4C)CC5)cc23)cc1 [Example 18, 3-[(7S)-7-Methyl-7-[(2R)-2-methylpyrrolidin-1-yl]-5,6,8,9-tetrahydrobenzo[7]annulen-3-yl]-5-[4-(3-methylpyridin-2-yl)phenyl]-7H-pyrrolo[2,3-c]pyridazine]
< 100 nM | < 100 nM | Cc1cc(=O)n(C)nc1-c1ccc(-c2c[nH]c3ncc(-c4ccc5c(c4)CC[C@@H](N4C6COCC4C6)CC5)cc23)cc1 [Example 20, 2,5-Dimethyl-6-(4-{5-[(7S)-7-{3-oxa-6-azabicyclo[3.1.1]heptan-6-yl}-6,7,8,9-tetrahydro-5H-benzo[7]annulen-2-yl]-1H-pyrrolo[2,3-b]pyridin-3-yl}phenyl)-2,3-dihydropyridazin-3-one]
< 100 nM | < 100 nM | Cc1cccnc1-c1nnc(-c2n[nH]c3ncc(-c4ccc5c(c4)CC[C@@H](N4C6COCC4C6)CC5)cc23)o1 [Example 25, 6-[(7S)-2-{3-[5-(3-Methylpyridin-2-yl)-1,3,4-oxadiazol-2-yl]-1H-pyrazolo[3,4-b]pyridin-5-yl}-6,7,8,9-tetrahydro-5H-benzo[7]annulen-7-yl]-3-oxa-6-azabicyclo[3.1.1]heptane]
< 100 nM | < 100 nM | Cc1cccnc1-n1cc(-c2c[nH]c3ncc(-c4ccc5c(c4)CC[C@@H](N4C6COCC4C6)CC5)cc23)cn1 [Example 27, 6-[(7S)-2-{3-[1-(3-Methylpyridin-2-yl)-1H-pyrazol-4-yl]-1H-pyrrolo[2,3-b]pyridin-5-yl}-6,7,8,9-tetrahydro-5H-benzo[7]annulen-7-yl]-3-oxa-6-azabicyclo[3.1.1]heptane]
< 100 nM | < 100 nM | Cc1cc(F)cnc1-c1ccc(-c2c[nH]c3ncc(-c4ccc5c(c4)CC[C@@](C)(N4CCC[C@H]4C)CC5)cc23)cc1 [Example 34, 3-[4-(5-Fluoro-3-methylpyridin-2-yl)phenyl]-5-[(7S)-7-methyl-7-[(2R)-2-methylpyrrolidin-1-yl]-5,6,8,9-tetrahydrobenzo[7]annulen-3-yl]-1H-pyrrolo[2,3-b]pyridine]
